Activity calls are given as the source filed them. Cut-off read from the data, not from the text of the source, for most assays here: actives have a measured IC50 and inactives only a lower limit.
Key:
[1] = biological target: T1, Sentrin-specific protease 8 (Homo sapiens, UniProt Q96LD8); assay type: functional;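 note: luminescence read-out of SENP8 inhibition, dose-response confirmation following an ultra-high-throughput screen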
T1 sequence (Q96LD8 whole entry): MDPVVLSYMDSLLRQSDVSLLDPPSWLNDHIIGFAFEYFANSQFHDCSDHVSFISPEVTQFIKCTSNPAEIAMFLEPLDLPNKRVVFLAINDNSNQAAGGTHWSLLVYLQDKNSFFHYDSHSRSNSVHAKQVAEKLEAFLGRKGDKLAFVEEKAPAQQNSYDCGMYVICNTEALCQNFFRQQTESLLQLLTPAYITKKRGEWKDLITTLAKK

[2] = biological target: T2, Apoptotic protease-activating factor 1 (Homo sapiens, UniProt O14727); assay type: functional
T2 sequence (O14727 whole entry): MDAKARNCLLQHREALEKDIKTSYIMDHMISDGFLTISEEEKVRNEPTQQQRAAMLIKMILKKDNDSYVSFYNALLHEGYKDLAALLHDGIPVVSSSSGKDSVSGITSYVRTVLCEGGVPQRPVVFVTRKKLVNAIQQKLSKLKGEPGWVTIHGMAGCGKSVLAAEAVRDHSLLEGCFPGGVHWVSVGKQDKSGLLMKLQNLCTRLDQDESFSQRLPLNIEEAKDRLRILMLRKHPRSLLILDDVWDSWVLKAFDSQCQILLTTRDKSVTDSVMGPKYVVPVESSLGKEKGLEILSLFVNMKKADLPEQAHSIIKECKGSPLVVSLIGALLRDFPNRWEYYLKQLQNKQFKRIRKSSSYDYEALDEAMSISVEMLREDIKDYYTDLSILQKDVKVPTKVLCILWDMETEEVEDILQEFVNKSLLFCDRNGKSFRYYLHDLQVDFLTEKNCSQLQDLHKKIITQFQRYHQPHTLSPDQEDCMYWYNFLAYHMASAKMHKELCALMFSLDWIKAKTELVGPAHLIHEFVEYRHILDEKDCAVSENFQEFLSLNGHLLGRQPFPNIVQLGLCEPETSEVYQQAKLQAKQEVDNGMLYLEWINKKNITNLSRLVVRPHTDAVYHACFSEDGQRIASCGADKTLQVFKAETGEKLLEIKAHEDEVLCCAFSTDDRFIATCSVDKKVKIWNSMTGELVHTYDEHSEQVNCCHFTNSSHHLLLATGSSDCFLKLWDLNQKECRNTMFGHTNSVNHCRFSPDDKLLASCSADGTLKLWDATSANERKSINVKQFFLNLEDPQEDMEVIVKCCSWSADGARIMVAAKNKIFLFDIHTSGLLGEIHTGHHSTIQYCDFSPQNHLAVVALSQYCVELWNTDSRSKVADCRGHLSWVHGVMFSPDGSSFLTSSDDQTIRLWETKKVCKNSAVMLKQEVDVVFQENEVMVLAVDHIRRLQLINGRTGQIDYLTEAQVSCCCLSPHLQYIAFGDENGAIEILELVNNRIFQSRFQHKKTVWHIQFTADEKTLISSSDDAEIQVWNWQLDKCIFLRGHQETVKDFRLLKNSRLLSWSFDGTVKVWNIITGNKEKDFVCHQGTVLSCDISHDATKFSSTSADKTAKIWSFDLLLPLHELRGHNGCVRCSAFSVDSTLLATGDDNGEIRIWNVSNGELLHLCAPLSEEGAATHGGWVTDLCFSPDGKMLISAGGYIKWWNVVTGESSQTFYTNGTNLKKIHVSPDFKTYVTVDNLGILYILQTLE

[3] = biological target: T3, Sentrin-specific protease 6 (Homo sapiens, UniProt Q9GZR1); assay type: functional;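 note: Luminescence-based dose-response confirmatory assay of SENP6 inhibition, following up an ultra-high-throughput screen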
T3 sequence (Q9GZR1 whole entry): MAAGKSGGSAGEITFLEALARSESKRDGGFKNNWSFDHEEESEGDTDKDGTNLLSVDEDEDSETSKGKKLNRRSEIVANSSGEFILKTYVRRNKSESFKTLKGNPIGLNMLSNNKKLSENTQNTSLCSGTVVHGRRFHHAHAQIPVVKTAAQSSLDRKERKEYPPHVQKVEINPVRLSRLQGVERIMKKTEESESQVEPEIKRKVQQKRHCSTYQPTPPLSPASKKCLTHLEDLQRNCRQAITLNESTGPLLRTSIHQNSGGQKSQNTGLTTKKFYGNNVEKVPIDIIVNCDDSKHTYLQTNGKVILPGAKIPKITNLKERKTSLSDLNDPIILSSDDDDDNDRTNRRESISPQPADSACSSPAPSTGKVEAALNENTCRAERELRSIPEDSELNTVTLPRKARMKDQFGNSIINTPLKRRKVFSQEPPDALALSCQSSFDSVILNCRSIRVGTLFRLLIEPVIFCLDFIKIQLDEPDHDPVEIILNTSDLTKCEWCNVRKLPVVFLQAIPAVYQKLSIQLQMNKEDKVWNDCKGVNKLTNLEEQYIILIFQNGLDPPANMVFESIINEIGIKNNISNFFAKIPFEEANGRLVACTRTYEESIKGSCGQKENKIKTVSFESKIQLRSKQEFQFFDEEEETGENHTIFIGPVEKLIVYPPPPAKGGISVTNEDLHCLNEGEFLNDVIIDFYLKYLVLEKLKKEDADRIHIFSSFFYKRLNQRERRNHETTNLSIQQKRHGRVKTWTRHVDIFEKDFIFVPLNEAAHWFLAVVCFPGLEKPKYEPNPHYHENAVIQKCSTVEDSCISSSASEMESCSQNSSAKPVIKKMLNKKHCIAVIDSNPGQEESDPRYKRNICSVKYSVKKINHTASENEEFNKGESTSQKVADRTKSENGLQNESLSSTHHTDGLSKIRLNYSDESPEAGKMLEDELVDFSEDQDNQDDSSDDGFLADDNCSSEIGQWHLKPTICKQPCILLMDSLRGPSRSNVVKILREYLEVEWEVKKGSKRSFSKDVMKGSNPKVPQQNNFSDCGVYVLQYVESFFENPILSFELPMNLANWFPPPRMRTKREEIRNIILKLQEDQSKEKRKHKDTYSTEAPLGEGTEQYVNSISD

[4] = biological target: T4, Tyrosyl-DNA phosphodiesterase 2 (Homo sapiens, UniProt O95551); experiment: human TDP2 enzyme inhibitors, dose response, biochemical, epi absorbance, IC50 (AID 743297)
T4 sequence (O95551 whole entry): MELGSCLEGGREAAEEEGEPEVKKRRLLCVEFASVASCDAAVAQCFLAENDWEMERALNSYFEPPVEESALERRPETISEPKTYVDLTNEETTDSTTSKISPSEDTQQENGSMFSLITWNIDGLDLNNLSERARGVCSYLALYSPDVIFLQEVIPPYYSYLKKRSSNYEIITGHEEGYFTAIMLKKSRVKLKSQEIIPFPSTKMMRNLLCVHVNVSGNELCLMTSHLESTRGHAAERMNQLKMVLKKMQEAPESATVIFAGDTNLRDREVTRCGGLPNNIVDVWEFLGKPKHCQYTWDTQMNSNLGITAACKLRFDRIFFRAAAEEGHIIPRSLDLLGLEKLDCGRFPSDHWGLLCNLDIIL

Measured: IC50

COc1ccc(NC(=S)Nc2ccc3nsnc3c2)cc1
active: [1] 2.74 µM | [2] 10.8 µM | [3] 2.3 µM | [4] 9.93 µM

CC(C)(C)c1cc[n+](C2=C([N-]S(=O)(=O)c3ccccc3)C(=O)c3ccccc3C2=O)cc1
active: [1] 13.6 µM | [3] 8.45 µM

O=C1C(=O)c2ccccc2C(O)=C1CCCCl
active: [1] 14.4 µM | [3] 7.23 µM

O=C1C=C(Nc2ccccc2C(=O)O)c2ccccc2C1=O
active: [1] 3.3 µM | [2] 3.84 µM | [3] 2 µM | [4] 6.56 µM
